Results as given in PMC6522510 (Nature Communications, 2019).

What was measured:
Parameters in all cases: species or system AML cell lines (8); Primary HTS, single concentration about 10 uM, Cell Titer Glo viability; log10 luminescence, per cent inhibition relative to cycloheximide control
Settings in all cases: 72 h, relative to cycloheximide control, log10 luminescence; inhibitor
CHRF288-11 = tested on: CHRF288-11
U937 = tested on: U937
M07e = tested on: M07e
CMS = tested on: CMS
MV4-11 = tested on: MV4-11
ML-2 = tested on: ML-2
CMK = tested on: CMK
MOLM-13 = tested on: MOLM-13

Compound | CHRF288-11 %inh (CHRF288-11) [%] | U937 %inh (U937) [%] | M07e %inh (M07e) [%] | CMS %inh (CMS) [%] | MV4-11 %inh (MV4-11) [%] | ML-2 %inh (ML-2) [%] | CMK %inh (CMK) [%] | MOLM-13 %inh (MOLM-13) [%]
Cc1nn(C)c2cc(N(C)c3ccnc(Nc4cccc(S(N)(=O)=O)c4)n3)ccc12 [SJ000573237-1, U17574/1/1] | 20.72 | 9.474 | 4.667 | 12.43 | 42.73 | 1.956 | 54.18 | 82.12
CN(C)CCNC(=O)Nc1ccc(N(C)c2ccnc(Nc3ccc(CS(C)(=O)=O)cc3)n2)cc1 [SJ000573239-1, U17983/95/3] | 29.73 | -1.201 | 0.06927 | -0.9741 | 73.54 | 15.37 | 26.79 | 92.53
COc1ccc(CNC(=O)c2ccc(-c3cc(-c4nnc(C)o4)ccc3C)cc2)cc1 [SJ000573240-1, R5419/62/2] | 2.517 | 0.2137 | 1.245 | -0.9608 | -0.02622 | 2.422 | -2.585 | 2.636
Cc1cc(O)cc(C)c1/C=C/c1cncc(C(=O)N(C)C)c1 [SJ000573241-1, U11962/4/2] | 4.933 | -1.176 | 3.606 | 2.581 | 0.1016 | -0.6112 | 1.656 | -1.208
COC(=O)c1ccc2c(c1)C(=Cc1cc(Br)c(O)c(Br)c1)C(=O)N2 [SJ000573242-1, U8097/138/1] | 6.512 | 4.474 | 3.423 | 10.7 | 16.92 | 8.878 | 10.16 | 7.69
NCc1ccc(-c2nc(-c3ccc(Cl)c(O)c3)c(-c3ccncc3)[nH]2)cc1 [SJ000573243-1, AN48585-012A1] | -2.078 | -0.0474 | 3.038 | -0.03858 | 1.86 | 1.975 | 0.6536 | 4.769
CCn1c(-c2nonc2N)nc2cnc(Oc3cccc(NC(=O)c4ccc(N(C)C)cc4)c3)cc21 [SJ000573244-1, DG202759-186A1] | 1.25 | 5.13 | -4.099 | 1.931 | 28.29 | 13.68 | 54.89 | 0.8338
CC(=O)NCc1cccc(C#Cc2cncnc2Nc2ccc(OCc3cccc(F)c3)c(Cl)c2)c1 [SJ000573245-1, U17810/92/1] | -2.703 | 4.477 | 1.428 | 2.982 | 1.627 | 1.051 | 4.208 | 4.772
CN1CCC(n2cnc(-c3ccc(F)cc3)c2-c2ccnc(NCCO)n2)CC1 [SJ000573246-1, TG19207-178A1] | 13.91 | 1.73 | 3.039 | -0.04607 | 13.81 | 6.134 | 15.99 | 21.36
c1ccc(Cc2nc3ccc(Nc4ncnc5ccccc45)cc3[nH]2)cc1 [SJ000573247-1, C3072/110/1] | 3.355 | -1.321 | 0.8889 | 0.8443 | 1.262 | 2.215 | -4.013 | 6.702
COc1ccc2cc(-c3c(-c4ccncc4)nc(-c4ccc([S+](C)[O-])cc4C)n3C)ccc2c1 (stereo not shown) [SJ000573248-1, NJ44157-082A1] | 5.983 | 1.089 | 7.477 | 2.672 | 7.703 | 0.217 | 1.35 | 2.934
CNC(=O)c1cncc(/C=C/c2c(C)cccc2C)c1 [SJ000573249-1, U12068/55/2] | 2.946 | -0.6106 | 6.499 | 2.842 | 1.251 | 1.303 | 2.958 | 0.7031
FC(F)(F)c1cccc(Nc2nccc(-c3cnn4nc(-c5ccccc5)ccc34)n2)c1 [SJ000573250-1, U17838/151/2] | 8.085 | -0.9941 | 2.996 | 3.035 | 3.227 | -0.4365 | 0.1975 | 2.078
NC(=O)c1ccc(-c2nc(-c3ccccn3)c(-c3ccc4c(c3)OCO4)[nH]2)cc1 [SJ000573251-1, TH48888-160A1] | 1.837 | -1.697 | 3.715 | 1.606 | 2.981 | 2.652 | 9.718 | 3.34
Fc1cccc(COc2ccc(Nc3ncnc4cc(-c5ccc[nH]5)sc34)cc2Cl)c1 [SJ000573252-1, U16950/26/1] | 1.14 | 11.09 | 5.221 | 15.37 | 9.963 | 17.93 | 115.2 | 14.24
COc1ccccc1-c1cc(/C=C2\C(=O)Nc3ncc(Br)cc32)cc(Br)c1O [SJ000573253-1, U16719/161/1] | -3.427 | -3.171 | 2.858 | -1.153 | 0.2955 | 1.918 | 2.536 | -1.113
OCc1ccc(-c2nc(-c3ccc4c(c3)OCO4)c(-c3ccccn3)[nH]2)cc1 [SJ000573254-1, FH98924-116A1] | -3.015 | -3.528 | 0.7981 | 0.5352 | -0.8385 | 2.365 | -1.373 | 0.3005
COc1cc2ncn(-c3cc(OCc4cccs4)c(C(N)=O)s3)c2cc1OC [SJ000573255-1, U21051/7/15] | 6.199 | 17.16 | 12.77 | 9.159 | 6.732 | 24.59 | -3.278 | 63.69
CC1=C(C(=O)Nc2ccc3[nH]ncc3c2)C(c2ccc(Cl)c(Cl)c2)CC(=O)N1 (stereo not shown) [SJ000573256-1, SD205340-087A3] | 13.93 | 2.616 | 6.129 | 3.826 | 13.75 | 6.91 | 25.41 | 0.01758
C[C@@H](Oc1cc(-n2cnc3ccc(OCC4CCN(C)CC4)cc32)sc1C(N)=O)c1ccccc1C(F)(F)F [SJ000573257-1, U20395/196/2] | 130.5 | 73.66 | 98.02 | 75.53 | 86.97 | 59.84 | 97.6 | 108.4
CNC(=O)c1cncc(/C=C/c2c(Cl)cccc2Cl)c1 [SJ000573258-1, U12068/57/2] | -0.5271 | 3.831 | 7.169 | 3.911 | 3.453 | -0.3801 | 4.903 | 2.751
COc1ccc(Nc2ncc(-c3ccccc3)o2)cc1OC [SJ000573259-1, U14961/58/1] | -4.817 | -1.171 | 6.596 | 0.9883 | 88.15 | 4.567 | 5.775 | 83.48
Fc1ccc(-c2nn3ccccc3c2-c2ccncc2)cc1 [SJ000573260-1, U11781/145/5] | -2.859 | 4.651 | 0.2861 | -2.539 | 4.558 | -1.762 | 8.765 | 0.1728
